This passage reports T/C results from PubChem BioAssay AID328 (DTP/NCI, 2004).

Structures are written as SMILES. Where “and” joins values, the source holds several entries; their conditions need not be identical. Identical values can stand only once. Inconclusive results and toxic doses are left out.

This test concerns BDF1 mice, P388 leukemia ip, median survival T/C. In words: NCI In Vivo Anticancer Drug Screen. Data for tumor model P388 Leukemia (intraperitoneal) in B6D2F1 (BDF1) mice. The following applies: endpoint: median survival time, higher = longer survival. In outline:
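Antitumour effect was judged in vivo: survival in drug-treated mice, normalised to that of vehicle-dosed controls, gives the reported T/C.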

[1] abbreviates: dose: 400.0 mg/kg/injection, schedule: Q01DX010 (ip), vehicle: saline.
[2] abbreviates: dose: 100.0 mg/kg/injection, schedule: Q01DX009 (ip), vehicle: Klucel (hydroxypropylcellulose) (HPC).
The mark [3] stands for this setting: dose: 100.0 mg/kg/injection, schedule: Q04DX003 (ip), vehicle: Klucel (hydroxypropylcellulose) (HPC).
[4] abbreviates: dose: 200.0 mg/kg/injection, schedule: Q01DX009 (ip), vehicle: Klucel (hydroxypropylcellulose) (HPC).
Where [5] appears, read: dose: 200.0 mg/kg/injection, schedule: Q04DX003 (ip), vehicle: Klucel (hydroxypropylcellulose) (HPC).
Where [6] appears, read: dose: 400.0 mg/kg/injection, schedule: Q01DX009 (ip), vehicle: Klucel (hydroxypropylcellulose) (HPC).
Setting [7] is: dose: 400.0 mg/kg/injection, schedule: Q04DX003 (ip), vehicle: Klucel (hydroxypropylcellulose) (HPC).

Regarding `CN(C)c1ccc(C(=C2C=CC(=[N+](C)C)C=C2)c2ccc(N(C)C)cc2)cc1`, the T/C (dose: 0.78 mg/kg/injection, schedule: Q01DX009 (ip), vehicle: saline) is 107 % of control; the T/C (dose: 1.56 mg/kg/injection, schedule: Q01DX009 (ip), vehicle: saline) is 121 % of control; the T/C (dose: 1.56 mg/kg/injection, schedule: Q04DX003 (ip), vehicle: saline) is 122 % of control; the T/C (dose: 3.12 mg/kg/injection, schedule: Q04DX003 (ip), vehicle: saline) is 86 % of control.
Regarding `CC1CC(C)(O)CC(C(O)CC2CC(=O)NC(=O)C2)C1=O` (stereo unspecified), the T/C (dose: 0.4 mg/kg/injection, schedule: Q01DX010 (ip), vehicle: saline) was 181 % of control; the T/C (dose: 0.5 mg/kg/injection, schedule: Q04DX003 (ip), vehicle: saline) was 111 % of control; the T/C (dose: 0.8 mg/kg/injection, schedule: Q01DX010 (ip), vehicle: saline) is 90 % of control; the T/C (dose: 1.2 mg/kg/injection, schedule: Q04DX003 (ip), vehicle: saline) is 123 % of control; the T/C (dose: 1.3 mg/kg/injection, schedule: Q01DX001 (sc), vehicle: saline) is 118 % of control; the T/C (dose: 2.0 mg/kg/injection, schedule: Q04DX003 (ip), vehicle: saline) is 161 % of control. The T/C runs as follows: (dose: 2.16 mg/kg/injection, schedule: Q01DX001 (ip), vehicle: saline) 116 % of control; (dose: 2.16 mg/kg/injection, schedule: Q01DX001 (sc), vehicle: saline) 119 % of control; (dose: 3.33 mg/kg/injection, schedule: Q04DX003 (ip), vehicle: saline) 92 % of control; (dose: 3.6 mg/kg/injection, schedule: Q01DX001 (ip), vehicle: saline) 114 % of control; (dose: 3.6 mg/kg/injection, schedule: Q01DX001 (sc), vehicle: saline) 118 % of control; (dose: 3.6 mg/kg/injection, schedule: Q04DX003 (ip), vehicle: saline) 107 % of control. Also, the T/C is, setting by setting: (dose: 6.0 mg/kg/injection, schedule: Q01DX001 (ip), vehicle: saline) 116 % of control; (dose: 6.0 mg/kg/injection, schedule: Q01DX001 (sc), vehicle: saline) 113 % of control; (dose: 10.0 mg/kg/injection, schedule: Q01DX001 (sc), vehicle: saline) 113 % of control; (dose: 288.0 micrograms/kg/injection, schedule: Q01DX009 (ip), vehicle: saline) 155 % of control and 170 % of control; (dose: 467.0 micrograms/kg/injection, schedule: Q04DX003 (sc), vehicle: saline) 116 % of control; (dose: 480.0 micrograms/kg/injection, schedule: Q01DX009 (ip), vehicle: saline) 177 % of control. For the same compound, the T/C was 119 % of control (dose: 778.0 micrograms/kg/injection, schedule: Q04DX003 (ip), vehicle: saline); 123 % of control (dose: 778.0 micrograms/kg/injection, schedule: Q04DX003 (sc), vehicle: saline); 109 % of control (dose: 800.0 micrograms/kg/injection, schedule: Q01DX009 (ip), vehicle: saline); 92 % of control (dose: 3600.0 micrograms/kg/injection, schedule: Q04DX003 (ip), vehicle: saline).
For the compound `CN1CCOP1OCC(F)(F)F` (stereo unspecified), the T/C was 104 % of control (dose: 25.0 mg/kg/injection, schedule: Q01DX005 (ip), vehicle: saline); 93 % of control (dose: 50.0 mg/kg/injection, schedule: Q01DX005 (ip), vehicle: saline); 109 % of control (dose: 100.0 mg/kg/injection, schedule: Q01DX005 (ip), vehicle: saline).
For the compound `OC[C@@H](O)[C@@H](O)CO`, the T/C runs as follows: (dose: 100.0 mg/kg/injection, schedule: Q01DX010 (ip), vehicle: saline) 90 % of control; under setting [1], 110 % of control.
On to `NC(=O)OCCCCCl`, for which the T/C runs as follows: (dose: 50.0 mg/kg/injection, schedule: Q01DX009 (ip), vehicle: saline) 110 % of control; (dose: 100.0 mg/kg/injection, schedule: Q01DX009 (ip), vehicle: saline) 107 % of control; (dose: 200.0 mg/kg/injection, schedule: Q01DX009 (ip), vehicle: saline) 100 % of control.
For the compound `CC(C)CC(C)CC(O)CC(C)C` (stereo unspecified), the T/C by setting is: under setting [2], 110 % of control; under setting [3], 100 % of control; under setting [4], 100 % of control; under setting [5], 100 % of control; under setting [6], 115 % of control; under setting [7], 95 % of control.
Take `N#Cc1nc2c(nc1C#N)-c1ccccc1C2=O`: the T/C is 100 % of control (dose: 6.0 mg/kg/injection, schedule: Q01DX009 (ip), vehicle: Klucel (hydroxypropylcellulose) (HPC)); 100 % of control (dose: 6.25 mg/kg/injection, schedule: Q04DX003 (ip), vehicle: Klucel (hydroxypropylcellulose) (HPC)); 107 % of control (dose: 12.0 mg/kg/injection, schedule: Q01DX009 (ip), vehicle: Klucel (hydroxypropylcellulose) (HPC)); 108 % of control (dose: 12.5 mg/kg/injection, schedule: Q04DX003 (ip), vehicle: Klucel (hydroxypropylcellulose) (HPC)); 104 % of control (dose: 25.0 mg/kg/injection, schedule: Q04DX003 (ip), vehicle: Klucel (hydroxypropylcellulose) (HPC)).
In the case of `CCCB(O)O`, the T/C reads like this: (dose: 100.0 mg/kg/injection, schedule: Q01DX001 (ip), vehicle: saline) 100 % of control; (dose: 200.0 mg/kg/injection, schedule: Q01DX001 (ip), vehicle: saline) 113 % of control; (dose: 400.0 mg/kg/injection, schedule: Q01DX001 (ip), vehicle: saline) 95 % of control.
As for `O=C1C(NC(=O)C2CCCCC2)=C(N2CC2)C(=O)C(NC(=O)C2CCCCC2)=C1N1CC1`, the T/C was 123 % of control (dose: 25.0 mg/kg/injection, schedule: Q01DX009 (ip), vehicle: Klucel (hydroxypropylcellulose) (HPC)); 118 % of control (dose: 50.0 mg/kg/injection, schedule: Q01DX010 (ip), vehicle: saline); 106 % of control under setting [2]; 150 % of control and 209 % of control (dose: 200.0 mg/kg/injection, schedule: Q01DX010 (ip), vehicle: saline); 86 % of control under setting [1].
On to `Cc1ccnc(NC(=O)Nc2ccccc2F)c1`, for which the T/C (dose: 100.0 mg/kg/injection, schedule: Q01DX001 (ip), vehicle: Klucel (hydroxypropylcellulose) (HPC)) is 90 % of control; the T/C (dose: 200.0 mg/kg/injection, schedule: Q01DX001 (ip), vehicle: Klucel (hydroxypropylcellulose) (HPC)) was 95 % of control; the T/C (dose: 400.0 mg/kg/injection, schedule: Q01DX001 (ip), vehicle: Klucel (hydroxypropylcellulose) (HPC)) was 105 % of control.
Consider `CC1=C2CC[C@H]3[C@@H]4CC[C@H](O)[C@@]4(C)CC[C@@H]3[C@@]2(C)CCC1=O`, for which the T/C runs as follows: (dose: 100.0 mg/kg/injection, schedule: Q04DX003 (ip), vehicle: saline with Tween-80) 95 % of control; (dose: 200.0 mg/kg/injection, schedule: Q04DX003 (ip), vehicle: saline with Tween-80) 95 % of control; (dose: 400.0 mg/kg/injection, schedule: Q04DX003 (ip), vehicle: saline with Tween-80) 100 % of control.
On to `C[P+](C)(c1ccccc1)c1ccccc1`, for which the T/C was 100 % of control (dose: 6.25 mg/kg/injection, schedule: Q04DX003 (ip), vehicle: saline with Tween-80) and 104 % of control (dose: 12.5 mg/kg/injection, schedule: Q04DX003 (ip), vehicle: saline with Tween-80).
Take `Cc1ccccc1C1(c2ccccc2C)OC(=O)c2ccccc21`: the T/C was 90 % of control under setting [2]; 95 % of control under setting [3]; 104 % of control under setting [4]; 91 % of control under setting [5]; 90 % of control under setting [6]; 87 % of control under setting [7].
Regarding `OCC(F)(F)C(F)(F)C(F)(F)C(F)F`, the T/C reads like this: under setting [2], 95 % of control; under setting [3], 104 % of control; under setting [4], 105 % of control; under setting [5], 100 % of control; under setting [6], 115 % of control; under setting [7], 90 % of control.
`CCSC1(SCC)C(=O)OC2=C(CCCCC2)C1N(C)C` (stereo unspecified): the T/C is 96 % of control (dose: 50.0 mg/kg/injection, schedule: Q01DX009 (ip), vehicle: saline with Tween-80); 95 % of control (dose: 100.0 mg/kg/injection, schedule: Q01DX009 (ip), vehicle: saline with Tween-80); 103 % of control (dose: 200.0 mg/kg/injection, schedule: Q01DX009 (ip), vehicle: saline with Tween-80).
